In patent US20240216355A1, “PHARMACEUTICAL COMPOSITIONS FOR USE IN THE PREVENTION AND TREATMENT OF A DISEASE OR DISORDER CAUSED BY OR ASSOCIATED WITH ONE OR MORE PREMATURE TERMINATION CODONS” (Monte Rosa Therapeutics, Inc., priority 2021, published 2024):
Where two headings read alike, the source gives them in different places.

Key:
[1] = molecular target: T1, Full length wild-type cereblon CRBN (Homo sapiens, UniProt Q96SW2); assay: Fluorescence polarization (FP) assay indicating cereblon binding
T1 construct: Full length wild-type cereblon CRBN (80.0 nM, 10 μL) was incubated in assay buffer
Protocol: Compound activity was monitored in a fluorescence polarization (FP) homogeneous assay using 1-[5-({2-[2-(2-{[2-(2,6-dioxopiperidin-3-yl)-1,3-dioxo-2,3-dihydro-1H-isoindol-4-yl]oxy}acetamido)ethoxy]ethyl}carbamoyl)pentyl]-3,3-dimethyl-2-[(1E,3E)-5-[(2E)-1,3,3-trimethyl-5-sulfo-2,3-dihydro-1H-indol-2-ylidene]penta-1,3-dien-1-yl]-3H-indol-1-ium-5-sulfonate as a fluorescent probe. Unless otherwise stated, all reagents were purchased from Sigma Aldrich. Enzymatic reactions were conducted in Perkin-Elmer Black 384 well ProxiPlate Plus (catalogue no. 6008269) in 10 μL total volume. Full length wild-type cereblon CRBN (80.0 nM, 10 μL) was incubated in assay buffer containing 20 mM HEPES (pH 8.0), […], 0.5 mM TCEP and 0.05% Tween 20 in the presence or absence of compound (300 nL). Inhibitors were stored as 10 mM DMSO stocks in an inert environment (low humidity, dark, low oxygen, room temperature) using the Storage Pod System. Compounds and DMSO were dispensed using the Echo E5XX (Labcyte Inc. USA) to give concentrations from 300 to 0.937 or 3000 to 9.3 nM in a 12 data point curve. […] Following incubation at room temperature for 30 min, the assay was initiated by dispensing the probe to a final concentration of 5 nM (2.5 nL of a 20 μM stock) using the Echo E5XX. FP was measured after a period of 12 hours using a Pherastar plate reader (BMG Labtech, Germany) exciting at 590 nm and measuring the amount of parallel and perpendicular light at 675 nm. The FP signal was subsequently normalized to the no-compound control (i.e., DMSO). Analysis and IC50 values were derived using Dotmatics (Dotmatics UK) software.

GSPT1 = molecular target: T2, GSPT1 (Homo sapiens, UniProt P15170+Q96SW2); assay: GSPT1 degradation immunofluorescence assay in CAL-51 cells; assay type: cell-based; conditions: 6 hours treatment
T2 construct: CAL-51 cells were purchased from DSMZ (cat. Number ACC302); host or cells: CAL-51 cells
Protocol: CAL-51 cells were purchased from DSMZ (cat. Number ACC302), sub-cultured in 90% Dulbecco's MEM (4.5 g/L glucose, Gibco 11965)+10% heat inactivated FBS (BioConcept, 2-01F1361) and incubated at 37° C., 5% CO2. For the assay, imaging microtiterplate Cell Carrier 96 Ultra (Perkin Elmer 6055302) were pre-coated with Fibronectin (Sigma F085, 30 μl at 0.2 μg/ml) in PBS (100p, Gibco 14190) for 45 min at room temperature, rinsed with PBS and CAL-51 cells (30K cells/well) were plated and let to adhere overnight. Cells were treated with compounds typically using a serial dilution ranging from 30 μM to 0.1 nM for 6 hours. Compounds were stored at 10 mM DMSO stocks. Vehicle (DMSO), positive (CC-885, 10 μM) and rescue controls (positive control plus 0.2 μM bortezomib) were also included at this stage. Cells were subsequently rinsed with PBS and fixed in 10% Formalin solution (50p, Sigma HT5011)) for 20 mins at room temperature. Following three consecutive PBS washes (100 μl), cells were permeabilized in 0.1% Triton X-100 in PBS (Sigma 93443, 50 μl) for 15 mins at room temperature. Following three further PBS washes, 50 μl blocking buffer (1% BSA, Sigma A4503, in PBS) was added for 45 min for signal-to-noise reduction. Primary antibody (human GSPT1, Sigma HPA052488) was diluted in blocking buffer (dil.1/300, 35 μl/well) and incubated with the cells overnight at 4° C. After three PBS washes, Alexa-fluor 488 coupled secondary antibodies (Invitrogen, A32731, dil. 1/1000), Alexa-fluor 647-Phalloïdin (Invitrogen, A22287, dil. 1/200) and DAPI (Thermo, #62248, dil.1/1000) were diluted in blocking buffer and incubated with the samples for 2 hours at room temperature. After three final PBS washes, samples were conserved in 100 μl PBS in the dark, until measurement. Image acquisition was performed on the Operetta High-Content Imager (Perkin-Elmer). Fluorescence intensity of Alexa-Fluor 488 (GSPT1), Alexa-Fluor 647 (Actin) and DAPI (Nucleus) were measured. For the determination of GSPT1 DC50 values, a custom algorithm implemented in the PerkinElmer image analysis software Harmony-Acapella@ was developed. After user-defined setting of adjustment parameters, the analysis was run identically without human intervention for all image fields. DAPI staining of the nuclei was used to determine the location of cells using standard nuclei detection modules. Segmentation artifacts were removed by threshold-based filters for area, roundness and intensity. The outline of the cells was determined analogously from the sum of the normalized, smoothed DAPI and Actin channel, starting from each nucleus.
The Alexa-Fluor 488 (GSPT1) signal intensity in each cell was finally measured, in order to obtain a Mean intensity per cell. GSPT1 degradation (DC50) was calculated after normalization to controls and data import in CDD vault Database, using non-linear regression.

[2] = system: G542X cystic fibrosis transmembrane conductance regulator (CFTR) nonsense mutation; assay: HaloTag G542X 5×5 NanoLuc reporter assay (CFTR readthrough) in HBE16 cells; assay type: cell-based, human
Protocol: FIG. 3A, FIG. 3B, and FIG. 3C show the effect of a representative compound of the disclosure on CFTR readthrough: Readthrough of the common G542X cystic fibrosis transmembrane conductance regulator (CFTR) nonsense mutation was carried out in the immortalized human bronchial epithelial cells HBE16. A HaloTag G542X 5×5 NanoLuc reporter assay was established in that cell line containing the CFTR readthrough cassette bearing the G542X codon as well as 5 codons upstream and downstream from the human CFTR sequence. […] The total protein assay (C) indicates no significant decrease of HBE16 cell viability following treated with the representative compound of the disclosure alone or in combination with G418 (y-axis left indicating protein μg/μL, and y-axis right indicating %).
The total protein assay (C) indicates no significant decrease of HBE16 cell viability following treated with the representative compound of the disclosure alone or in combination with ELX-02 (y-axis left indicating protein μg/μL, and y-axis right indicating %).

HBE16 cells = assay: Killing activity (EC10) in HBE16 cells after 72 hr; assay type: cell-based, human
[3] = compounds 1 to 165, read-out: Activity for GSPT1 degradation (DC50 code)
[4] = compounds 201 to 307, read-out: Activity for GSPT1 degradation (DC50 code)

T2 sequence (P15170 whole entry): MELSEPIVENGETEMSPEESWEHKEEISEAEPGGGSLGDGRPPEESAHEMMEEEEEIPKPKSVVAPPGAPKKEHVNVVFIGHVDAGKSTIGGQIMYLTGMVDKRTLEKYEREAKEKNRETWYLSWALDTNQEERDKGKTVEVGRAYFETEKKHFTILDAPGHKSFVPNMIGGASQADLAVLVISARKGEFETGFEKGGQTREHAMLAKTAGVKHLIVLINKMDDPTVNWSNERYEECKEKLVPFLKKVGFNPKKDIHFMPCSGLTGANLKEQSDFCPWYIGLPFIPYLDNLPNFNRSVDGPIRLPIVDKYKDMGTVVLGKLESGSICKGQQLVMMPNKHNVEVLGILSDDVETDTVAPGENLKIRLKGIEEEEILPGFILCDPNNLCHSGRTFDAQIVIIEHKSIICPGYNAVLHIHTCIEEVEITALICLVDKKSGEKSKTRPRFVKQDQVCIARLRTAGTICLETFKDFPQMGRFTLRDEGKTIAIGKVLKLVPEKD
T2 sequence (Q96SW2 whole entry): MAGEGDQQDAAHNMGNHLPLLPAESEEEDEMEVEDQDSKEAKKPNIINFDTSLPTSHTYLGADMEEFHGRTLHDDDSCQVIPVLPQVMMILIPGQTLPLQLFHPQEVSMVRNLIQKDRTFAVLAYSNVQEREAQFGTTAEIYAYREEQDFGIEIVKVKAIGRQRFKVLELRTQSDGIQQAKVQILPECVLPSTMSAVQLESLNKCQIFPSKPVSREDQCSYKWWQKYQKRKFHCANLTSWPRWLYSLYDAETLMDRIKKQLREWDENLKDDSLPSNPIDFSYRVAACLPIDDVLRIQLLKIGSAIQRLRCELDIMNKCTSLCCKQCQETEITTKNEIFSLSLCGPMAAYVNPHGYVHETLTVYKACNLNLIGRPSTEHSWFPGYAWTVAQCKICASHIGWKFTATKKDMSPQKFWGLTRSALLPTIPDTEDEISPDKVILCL
T2 sequence (Q16531 whole entry partner): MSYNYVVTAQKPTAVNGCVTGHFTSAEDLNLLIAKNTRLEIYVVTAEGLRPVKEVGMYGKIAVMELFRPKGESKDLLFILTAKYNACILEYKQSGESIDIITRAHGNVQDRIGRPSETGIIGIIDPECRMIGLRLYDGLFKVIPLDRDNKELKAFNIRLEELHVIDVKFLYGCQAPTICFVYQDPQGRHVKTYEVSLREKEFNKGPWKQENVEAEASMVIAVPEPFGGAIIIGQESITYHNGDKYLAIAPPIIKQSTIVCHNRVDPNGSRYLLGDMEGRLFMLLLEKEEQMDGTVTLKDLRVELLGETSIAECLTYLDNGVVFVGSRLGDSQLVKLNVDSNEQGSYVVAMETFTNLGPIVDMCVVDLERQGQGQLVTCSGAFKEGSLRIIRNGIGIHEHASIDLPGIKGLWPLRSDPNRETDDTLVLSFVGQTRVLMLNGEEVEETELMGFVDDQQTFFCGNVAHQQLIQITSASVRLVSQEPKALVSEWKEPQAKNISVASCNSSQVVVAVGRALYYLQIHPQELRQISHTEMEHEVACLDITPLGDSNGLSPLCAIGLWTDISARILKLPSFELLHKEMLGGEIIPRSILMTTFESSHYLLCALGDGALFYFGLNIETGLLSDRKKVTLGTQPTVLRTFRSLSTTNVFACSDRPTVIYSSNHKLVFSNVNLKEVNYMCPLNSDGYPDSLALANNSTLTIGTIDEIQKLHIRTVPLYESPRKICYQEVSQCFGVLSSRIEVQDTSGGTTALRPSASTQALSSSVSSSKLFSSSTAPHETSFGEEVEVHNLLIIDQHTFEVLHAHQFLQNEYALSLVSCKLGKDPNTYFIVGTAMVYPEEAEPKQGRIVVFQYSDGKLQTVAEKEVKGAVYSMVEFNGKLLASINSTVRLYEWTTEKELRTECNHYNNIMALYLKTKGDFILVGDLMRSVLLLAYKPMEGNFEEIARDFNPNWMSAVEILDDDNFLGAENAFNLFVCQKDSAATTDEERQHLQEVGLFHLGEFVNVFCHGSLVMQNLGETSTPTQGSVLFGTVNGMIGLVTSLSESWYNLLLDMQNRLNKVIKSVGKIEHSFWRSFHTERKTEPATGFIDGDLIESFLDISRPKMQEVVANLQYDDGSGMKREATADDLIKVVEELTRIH
T1 sequence (Q96SW2 whole entry): as the sequence (Q96SW2 whole entry) above

Row | IC50 [1] | DC50 (GSPT1; [4]) | SMILES | further results
1 | < 1100 nM |  | Cc1c(Cl)cc(NC(=O)NCc2ccc3c(c2)C(=O)N(C2CCC(=O)NC2=O)C3)cc1CN1CC2CCC(C1)O2 (stereo not shown) [Compound 140] | DC50 (GSPT1; [3]): ≤ 100 nM
2 | < 1100 nM |  | Cc1c(Cl)cc(NC(=O)NCc2ccc3c(c2)C(=O)N(C2CCC(=O)NC2=O)C3)cc1CN1CCN2CCC1C2 (stereo not shown) [Compound 154] | DC50 (GSPT1; [3]): > 300 nM
3 | < 1100 nM |  | Cc1c(Cl)cc(NC(=O)NCc2ccc3c(c2)C(=O)N(C2CCC(=O)NC2=O)C3)cc1CC1COCCN1C (stereo not shown) [Compound 160] | DC50 (GSPT1; [3]): ≤ 100 nM
4 | < 1100 nM | < 30 nM | Cc1c(Cl)cc(NC(=O)OCc2ccc3c(c2)C(=O)N(C2CCC(=O)NC2=O)C3)cc1CN1CCOCC1 (stereo not shown) [Compound 202] | 
5 | < 1100 nM | < 30 nM | O=C1CCC(N2Cc3ccc(COC(=O)Nc4cc(CN5CCOCC5)cc(OC(F)(F)F)c4)cc3C2=O)C(=O)N1 (stereo not shown) [Compound 204] | 
6 | < 1100 nM | < 30 nM | Cc1ncc(NC(=O)OCc2ccc3c(c2)C(=O)N(C2CCC(=O)NC2=O)C3)cc1Cl (stereo not shown) [Compound 206] | 
7 | < 1100 nM | < 30 nM | Cc1cc(C)cc(NC(=O)OCc2ccc3c(c2)C(=O)N(C2CCC(=O)NC2=O)C3)c1 (stereo not shown) [Compound 208] | 
8 | < 1100 nM | < 30 nM | Cc1c(Cl)cc(NC(=O)OCc2ccc3c(c2)C(=O)N(C2CCC(=O)NC2=O)C3)cc1CN1CC2CC1CO2 (stereo not shown) [Compound 213] | 
9 | < 1100 nM | < 30 nM | O=C1CCC(N2Cc3ccc(COC(=O)Nc4ccc(N5CCCCC5)nc4)cc3C2=O)C(=O)N1 (stereo not shown) [Compound 215] | 
10 | < 1100 nM | < 30 nM | Cc1ccc(NC(=O)OCc2ccc3c(c2)C(=O)N(C2CCC(=O)NC2=O)C3)cc1OC(F)F (stereo not shown) [Compound 224] | 
11 | < 1100 nM | < 30 nM | Cc1c(CN2CCOCC2)cc(NC(=O)OCc2ccc3c(c2)C(=O)N(C2CCC(=O)NC2=O)C3)cc1OC(F)F (stereo not shown) [Compound 225] | 
12 | < 1100 nM | < 30 nM | O=C1CCC(N2Cc3ccc(COC(=O)Nc4ccc(C5CC5)cc4)cc3C2=O)C(=O)N1 (stereo not shown) [Compound 239] | 
13 | < 1100 nM | < 30 nM | Cc1c(F)cc(NC(=O)OCc2ccc3c(c2)C(=O)N(C2CCC(=O)NC2=O)C3)cc1CN1CCOCC1 (stereo not shown) [Compound 241] | 
14 | < 1100 nM | < 30 nM | CCc1cc(NC(=O)OCc2ccc3c(c2)C(=O)N(C2CCC(=O)NC2=O)C3)cnc1C (stereo not shown) [Compound 255] | 
15 | < 1100 nM | < 30 nM | CC1(c2ccc(NC(=O)OCc3ccc4c(c3)C(=O)N(C3CCC(=O)NC3=O)C4)cc2)CC1 (stereo not shown) [Compound 258] | 
16 | < 1100 nM | < 30 nM | Cc1c(Cl)cc(NC(=O)OCc2ccc3c(c2)C(=O)N(C2CCC(=O)NC2=O)C3)cc1OC1CCN(C)C1 (stereo not shown) [Compound 268] | 
17 | < 1100 nM | < 30 nM | CC1CCCCN1c1ccc(NC(=O)OCc2ccc3c(c2)C(=O)N(C2CCC(=O)NC2=O)C3)cn1 (stereo not shown) [Compound 277] | 
18 | < 1100 nM | < 30 nM | CC1(C)COc2cc(NC(=O)OCc3ccc4c(c3)C(=O)N(C3CCC(=O)NC3=O)C4)ccc21 (stereo not shown) [Compound 283] | 
19 | < 1100 nM | < 30 nM | Cc1ccccc1-c1ccc(NC(=O)OCc2ccc3c(c2)C(=O)N(C2CCC(=O)NC2=O)C3)cn1 (stereo not shown) [Compound 286] | 
20 | < 1100 nM | < 30 nM | COc1ccccc1-c1ccc(NC(=O)OCc2ccc3c(c2)C(=O)N(C2CCC(=O)NC2=O)C3)cn1 (stereo not shown) [Compound 287] | 
21 | < 1100 nM | < 30 nM | Cc1cc(NC(=O)OCc2ccc3c(c2)C(=O)N(C2CCC(=O)NC2=O)C3)cnc1-c1ccccc1 (stereo not shown) [Compound 288] | 
22 | < 1100 nM | < 30 nM | Cc1ncc(NC(=O)OCc2ccc3c(c2)C(=O)N(C2CCC(=O)NC2=O)C3)cc1OC(F)(F)F (stereo not shown) [Compound 291] | 
23 | < 1100 nM | < 30 nM | O=C1CCC(N2Cc3ccc(COC(=O)Nc4ccc5c(c4)OCCC5)cc3C2=O)C(=O)N1 (stereo not shown) [Compound 292] | 
24 |  |  | C[C@@H](N)[C@H]1O[C@@H](O[C@@H]2[C@@H](O)[C@H](N)C[C@H](N)[C@H]2O[C@H]2O[C@H]([C@@H](C)O)[C@@H](O)[C@H](O)[C@H]2N)[C@H](O)[C@@H]1O [ELX-02] | EC50 [2]: 250000 nM; EC10 (readthrough activity, NanoLuc) ([2]; concentration used in combination): 85000 nM; EC10 (concentration resulting in 10% killing activity) (HBE16 cells): 85000 nM
